Activity calls are given as the source filed them. The calls are words filed in the database; no cut-off is given here.
Tests used:
[1] = system: Mus musculus; assay: Anticonvulsant activity in ip dosed albino Swiss mouse assessed as protection against maximal electroshock-induced seizures at 0.5 hr; type: functional
[2] = system: Mus musculus; assay: Anticonvulsant activity in albino Swiss mouse assessed as assessed as protection against subcutaneous pentylenetetrazol-induced seizures at 300 mg/kg, ip at 4 hrs; type: functional, organism-based; parameters: dose 300 mg/kg
[3] = system: Mus musculus; assay: Anticonvulsant activity in ip dosed albino Swiss mouse assessed as protection against maximal electroshock-induced seizures at 4 hrs; type: functional
[4] = system: Mus musculus; assay: Anticonvulsant activity in ip dosed albino Swiss mouse assessed as assessed as protection against subcutaneous pentylenetetrazol-induced seizures at 0.5 hr; type: functional
[5] = Neurotoxicity in ip dosed albino Wistar rat at 0.5 hr by rotorod test; type: toxicity, organism-based; conditions: in vivo
[6] = system: Rattus norvegicus; assay: Anticonvulsant activity in albino Wistar rat assessed as protection against maximal electroshock-induced seizures at 30 mg/kg, po at 0.25 hr; type: functional
[7] = system: Rattus norvegicus; assay: Anticonvulsant activity in albino Wistar rat assessed as protection against maximal electroshock-induced seizures at 30 mg/kg, po at 0.5 hr; type: functional
[8] = system: Rattus norvegicus; assay: Anticonvulsant activity in albino Wistar rat assessed as protection against maximal electroshock-induced seizures at 30 mg/kg, po at 1 hr; type: functional
[9] = system: Rattus norvegicus; assay: Anticonvulsant activity in albino Wistar rat assessed as protection against maximal electroshock-induced seizures at 30 mg/kg, po at 2 hrs; type: functional
[10] = system: Rattus norvegicus; assay: Anticonvulsant activity in albino Wistar rat assessed as protection against maximal electroshock-induced seizures at 30 mg/kg, po at 4 hrs; type: functional
[11] = system: Rattus norvegicus; assay: Anticonvulsant activity in albino Wistar rat assessed as protection against subcutaneous pentylenetetrazol-induced seizures at 50 mg/kg, po at 0.5 hr; type: functional
[12] = system: Rattus norvegicus; assay: Anticonvulsant activity in albino Wistar rat assessed as protection against subcutaneous pentylenetetrazol-induced seizures at 50 mg/kg, po at 1 hr; type: functional
[13] = system: Rattus norvegicus; assay: Anticonvulsant activity in albino Wistar rat assessed as protection against subcutaneous pentylenetetrazol-induced seizures at 50 mg/kg, po at 2 hrs; type: functional
[14] = system: Rattus norvegicus; assay: Anticonvulsant activity in po dosed albino Wistar rat assessed as protection against maximal electroshock-induced seizures at 2 hrs; type: functional
[15] = Neurotoxicity in po dosed albino Wistar rat at 2 hrs by rotorod test; type: toxicity, organism-based; conditions: in vivo
[16] = Protective index, ratio of TD50 for neurotoxicity in po dosed albino Wistar rat to ED50 for anticonvulsant activity in po dosed albino Wistar rat assessed as protection against maximal electroshock-induced seizures at 2 hrs; type: toxicity, organism-based; conditions: in vivo, read-out: Ratio TD50/ED50
[17] = Neurotoxicity in ip dosed albino Wistar rat at 4 hrs by rotorod test; type: toxicity, organism-based; conditions: in vivo
[18] = system: Mus musculus; assay: Anticonvulsant activity in albino Swiss mouse assessed as protection against maximal electroshock-induced seizures at 300 mg/kg, ip at 4 hrs; type: functional, organism-based; parameters: dose 300 mg/kg
[19] = system: Mus musculus; assay: Anticonvulsant activity in albino Swiss mouse assessed as protection against maximal electroshock-induced seizures at 300 mg/kg, ip at 0.5 hr; type: functional, organism-based; parameters: dose 300 mg/kg
[20] = system: Mus musculus; assay: Anticonvulsant activity in albino Swiss mouse assessed as assessed as protection against subcutaneous pentylenetetrazol-induced seizures at 300 mg/kg, ip at 0.5 hr; type: functional, organism-based; parameters: dose 300 mg/kg
[21] = system: Mus musculus; assay: Anticonvulsant activity in ip dosed albino Swiss mouse assessed as assessed as protection against subcutaneous pentylenetetrazol-induced seizures at 4 hrs; type: functional
[22] = system: Rattus norvegicus; assay: Neurotoxicity in albino Wistar rat at 300 mg/kg, ip at 0.5 hr by rotorod test; type: toxicity, organism-based; parameters: dose 300 mg/kg, route intraperitoneal; conditions: in vivo
[23] = system: Rattus norvegicus; assay: Anticonvulsant activity in po dosed albino Wistar rat assessed as protection against subcutaneous pentylenetetrazol-induced seizures at 2 hrs; type: functional
[24] = system: Rattus norvegicus; assay: Neurotoxicity in albino Wistar rat at 300 mg/kg, ip at 4 hrs by rotorod test; type: toxicity, organism-based; parameters: dose 300 mg/kg, route intraperitoneal; conditions: in vivo
[25] = in vivo; conditions: Wistar, rat, po
Description: Protective index, ratio of TD50 for neurotoxicity in po dosed albino Wistar rat to ED50 for anticonvulsant activity in po dosed albino Wistar rat assessed as protection against subcutaneous pentylenetetrazol-induced seizures at 2 hrs

[26] = system: Rattus norvegicus; assay: Anticonvulsant activity in albino Wistar rat assessed as protection against subcutaneous pentylenetetrazol-induced seizures at 50 mg/kg, po at 4 hrs; type: functional
[27] = system: Rattus norvegicus; assay: Anticonvulsant activity in po dosed albino Wistar rat assessed as protection against subcutaneous pentylenetetrazol-induced seizures at 4 hrs; type: functional
[28] = Neurotoxicity in po dosed albino Wistar rat at 4 hrs by rotorod test; type: toxicity, organism-based; conditions: in vivo
[29] = Protective index, ratio of TD50 for neurotoxicity in po dosed albino Wistar rat to ED50 for anticonvulsant activity in po dosed albino Wistar rat assessed as protection against subcutaneous pentylenetetrazol-induced seizures at 4 hrs; type: toxicity, organism-based; conditions: in vivo, read-out: Ratio TD50/ED50
[30] = system: Rattus norvegicus; assay: Anticonvulsant activity in po dosed albino Wistar rat assessed as protection against maximal electroshock-induced seizures at 1 hr; type: functional
[31] = Neurotoxicity in po dosed albino Wistar rat at 1 hr by rotorod test; type: toxicity, organism-based; conditions: in vivo
[32] = in vivo; conditions: Wistar, rat, po; remark: listed apart in the source
Description: Protective index, ratio of TD50 for neurotoxicity in po dosed albino Wistar rat to ED50 for anticonvulsant activity in po dosed albino Wistar rat assessed as protection against maximal electroshock-induced seizures at 1 hr

| SMILES | MED50 [1] [mg/kg] | Activity [2] | MED50 [3] [mg/kg] | MED50 [4] [mg/kg] | MTD at 0.5 h [5] [mg/kg] | Activity [6] [%] | Activity [7] [%] | Activity [8] [%] | Activity [9] [%] | Activity [10] [%] | Activity [11] [%] | Activity [12] [%] | MTD at 4 h [17] [mg/kg] | Activity [18] | also measured |
| --- | --- | --- | --- | --- | --- | --- | --- | --- | --- | --- | --- | --- | --- | --- | --- |
| O=C1CC(c2noc3ccccc23)C(=O)N1c1ccc(F)cc1 (configuration not stated) | 30 | inactive | 30 | 100 | 300 | 25 | 50 | 75 | 100 | 100 | 25 | 25 | 300 |  | Activity [13]: 25%; ED50 [14]: 14.9 mg/kg; TD50 at 2 h [15]: > 500 mg/kg; selectivity ratio at 2 h [16]: > 33.5 |
| CCN1C(=O)CC(c2noc3ccccc23)C1=O (configuration not stated) | 300 | inactive |  | 300 |  |  |  |  |  |  |  |  |  | inactive |  |
| COc1ccc(N2C(=O)CC(c3noc4ccccc34)C2=O)cc1 (configuration not stated) | 100 | inactive | 300 | 100 | 100 | 25 | 25 | 25 | 50 | 25 | 25 | 25 | 300 |  |  |
| O=C1CC(c2noc3ccccc23)C(=O)N1c1ccccn1 (configuration not stated) | 300 | inactive |  | 300 |  |  |  |  |  |  |  |  |  | inactive |  |
| O=C1CC(c2noc3ccccc23)C(=O)N1c1cccnc1 (configuration not stated) |  | inactive |  |  |  |  |  |  |  |  |  |  |  | inactive | Activity [19]: inactive; Activity [20]: inactive |
| CCC1(C)CC(=O)NC1=O (configuration not stated) [ETHOSUXIMIDE] |  |  |  | 100 |  |  |  |  |  |  | 50 | 25 |  | inactive | Activity [19]: inactive; MED50 [21]: 300 mg/kg; Activity [22]: Non-toxic; Activity [13]: 25%; ED50 [23]: 167 mg/kg; TD50 at 2 h [15]: > 500 mg/kg; Activity [24]: Non-toxic; selectivity ratio at 2 h [25]: > 3 |
| O=C1CC(c2noc3ccccc23)C(=O)N1c1ccc(Cl)cc1 (configuration not stated) | 300 | inactive |  | 300 |  |  |  |  |  |  |  |  |  | inactive |  |
| O=C1CC(c2noc3ccccc23)C(=O)N1C1CCCCC1 (configuration not stated) | 300 |  | 300 | 100 | 300 |  |  |  |  |  | 25 | 25 | 300 |  | MED50 [21]: 100 mg/kg; Activity [13]: 25%; Activity [26]: 25%; ED50 [27]: 42.3 mg/kg; TD50 at 4 h [28]: > 150 mg/kg; selectivity ratio at 4 h [29]: > 3.54 |
| O=C1CC(c2noc3ccccc23)C(=O)N1c1ccncc1 (configuration not stated) | 300 | inactive |  | 300 |  |  |  |  |  |  |  |  |  | inactive |  |
| CCCN1C(=O)CC(c2noc3ccccc23)C1=O (configuration not stated) | 300 | inactive |  | 300 |  |  |  |  |  |  |  |  |  | inactive |  |
| O=C1NC(=O)C(c2ccccc2)(c2ccccc2)N1 [PHENYTOIN] | 30 | inactive |  |  | 100 | 25 | 100 | 75 | 75 | 75 |  |  | 100 | inactive | Activity [20]: inactive; ED50 [30]: 28.1 mg/kg; TD50 at 1 h [31]: > 100 mg/kg; selectivity ratio at 1 h [32]: > 3.55 |
| O=C1CC(c2noc3ccccc23)C(=O)N1c1ccccc1 (configuration not stated) | 30 |  | 100 | 300 | 100 | 25 | 25 | 50 | 50 | 50 |  |  | 300 |  | MED50 [21]: 300 mg/kg |
| CCCCN1C(=O)CC(c2noc3ccccc23)C1=O (configuration not stated) |  | inactive |  | 100 | 100 |  |  |  |  |  | 25 | 25 | 100 | inactive | Activity [19]: inactive |

Source: ChEMBL document CHEMBL3351514, “Design and synthesis of new of 3-(benzo[d]isoxazol-3-yl)-1-substituted pyrrolidine-2, 5-dione derivatives as anticonvulsants” (Eur J Med Chem, 2014)
